# Reference: PubChem BioAssay (NCI)
#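 48-hour exposure; five concentrations; linearly interpolated endpoints. TGI marks complete inhibition of growth.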
# What was measured:
# Experiment in all cases: inhibition of tumour cell growth, NCI panel, 48 h
# [1] = system: EKVX NSCLC
# [2] = system: HOP-92 NSCLC
# [3] = system: RPMI-8226 leukemia
# [4] = system: SK-MEL-28 melanoma
# [5] = system: IGROV1 ovarian
# [6] = system: NCI-H23 lung
# [7] = system: OVCAR-4 ovarian
# [8] = system: SW-620 colon
# [9] = system: UO-31 renal
# [10] = system: SF-295 CNS
# [11] = system: NCI/ADR-RES ovarian
# [12] = system: SF-268 CNS
# [13] = system: 786-0 renal
# [14] = system: CCRF-CEM leukemia
# [15] = system: NCI-H460 lung
# [16] = system: SF-539 CNS
# [17] = system: NCI-H226 lung
# [18] = system: SK-MEL-2 melanoma
# [19] = system: OVCAR-8 ovarian
# [20] = system: HT29 colon
# [21] = system: OVCAR-5 ovarian
# [22] = system: MALME-3M melanoma
# [23] = system: MOLT-4 leukemia
# [24] = system: CAKI-1 renal
# [25] = system: SNB-19 CNS
# [26] = system: BT-549 breast
# [27] = system: RXF 393 renal
# [28] = system: M14 melanoma
# [29] = system: PC-3 prostate
# [30] = system: KM12 colon
# [31] = system: SK-OV-3 ovarian
# [32] = system: COLO 205 colon
# [33] = system: SK-MEL-5 melanoma
# [34] = system: LOX IMVI melanoma
# [35] = system: A549 NSCLC
# [36] = system: U251 CNS
# [37] = system: HL-60(TB) leukemia
# [38] = system: K-562 leukemia
# [39] = system: DU-145 prostate
# [40] = system: HOP-62 NSCLC
# [41] = system: OVCAR-3 ovarian
# [42] = system: ACHN renal
# [43] = system: SR leukemia
# [44] = system: TK-10 renal
# [45] = system: A498 renal
# [46] = system: UACC-62 melanoma
# [47] = system: HCT-15 colon
# [48] = system: MDA-MB-435
# [49] = system: UACC-257 melanoma
# [50] = system: NCI-H522 lung
# [51] = system: HS 578T breast
# [52] = system: MDA-MB-231 breast
# [53] = system: MDA-N
# [54] = system: HCT-116 colon
# [55] = system: SN12C renal
# [56] = system: T-47D breast
# [57] = system: MCF7 breast
compound,measurement,setting,value
O=C1CCCCC(=O)Nc2ccccc2N1,TGI,[1],> 100 µM
same,TGI,[2],> 100 µM
same,TGI,[3],> 100 µM
same,TGI,[4],> 100 µM
same,TGI,[5],> 100 µM
same,TGI,[6],> 100 µM
same,TGI,[7],> 100 µM
same,TGI,[8],> 100 µM
same,TGI,[9],> 100 µM
same,TGI,[10],> 100 µM
same,TGI,[11],> 100 µM
same,TGI,[12],> 100 µM
same,TGI,[13],> 100 µM
same,TGI,[14],> 100 µM
same,TGI,[15],> 100 µM
same,TGI,[16],> 100 µM
same,TGI,[17],> 100 µM
same,TGI,[18],> 100 µM
same,TGI,[19],> 100 µM
same,TGI,[20],> 100 µM
same,TGI,[21],> 100 µM
same,TGI,[22],> 100 µM
same,TGI,[23],> 100 µM
same,TGI,[24],> 100 µM
same,TGI,[25],> 100 µM
same,TGI,[26],> 100 µM
same,TGI,[27],> 100 µM
same,TGI,[28],> 100 µM
same,TGI,[29],> 100 µM
same,TGI,[30],> 100 µM
same,TGI,[31],> 100 µM
same,TGI,[32],> 100 µM
same,TGI,[33],> 100 µM
same,TGI,[34],> 100 µM
same,TGI,[35],> 100 µM
same,TGI,[36],> 100 µM
same,TGI,[37],> 100 µM
same,TGI,[38],> 100 µM
same,TGI,[39],> 100 µM
same,TGI,[40],> 100 µM
same,TGI,[41],> 100 µM
same,TGI,[42],> 100 µM
same,TGI,[43],> 100 µM
same,TGI,[44],> 100 µM
same,TGI,[45],> 100 µM
same,TGI,[46],> 100 µM
same,TGI,[47],> 100 µM
same,TGI,[48],> 100 µM
same,TGI,[49],> 100 µM
same,TGI,[50],> 100 µM
same,TGI,[51],> 100 µM
same,TGI,[52],> 100 µM
same,TGI,[53],> 100 µM
same,TGI,[54],> 100 µM
same,TGI,[55],> 100 µM
same,TGI,[56],> 100 µM
COc1ccc(NS(=O)c2ccccc2OC)cc1 (configuration not stated),TGI,[1],> 100 µM
same,TGI,[3],> 100 µM
same,TGI,[4],> 100 µM
same,TGI,[5],> 100 µM
same,TGI,[6],> 100 µM
same,TGI,[7],> 100 µM
same,TGI,[8],> 100 µM
same,TGI,[9],28.2 µM
same,TGI,[10],> 100 µM
same,TGI,[11],> 100 µM
same,TGI,[12],39.6 µM
same,TGI,[13],> 100 µM
same,TGI,[14],> 100 µM
same,TGI,[15],> 100 µM
same,TGI,[16],35.9 µM
same,TGI,[17],41.8 µM
same,TGI,[18],46.6 µM
same,TGI,[19],> 100 µM
same,TGI,[20],> 100 µM
same,TGI,[21],> 100 µM
same,TGI,[22],41.1 µM
same,TGI,[23],> 100 µM
same,TGI,[24],68.6 µM
same,TGI,[25],> 100 µM
same,TGI,[28],> 100 µM
same,TGI,[30],18.1 µM
same,TGI,[32],48.6 µM
same,TGI,[57],67.3 µM
same,TGI,[33],54.4 µM
same,TGI,[34],> 100 µM
same,TGI,[35],79.8 µM
same,TGI,[36],67.2 µM
same,TGI,[37],> 100 µM
same,TGI,[38],> 100 µM
same,TGI,[39],> 100 µM
same,TGI,[40],> 100 µM
same,TGI,[41],> 100 µM
same,TGI,[42],> 100 µM
same,TGI,[43],> 100 µM
same,TGI,[44],> 100 µM
same,TGI,[46],20.5 µM
same,TGI,[47],> 100 µM
same,TGI,[48],> 100 µM
same,TGI,[49],> 100 µM
same,TGI,[50],52.5 µM
same,TGI,[51],84.5 µM
same,TGI,[52],> 100 µM
same,TGI,[53],> 100 µM
same,TGI,[54],> 100 µM
same,TGI,[55],> 100 µM
same,TGI,[56],35.2 µM
